The target in one assay is CDK2/Cyclin E1 (Homo sapiens (Human), UniProt P24941). Kind of assay: CDK2/Cyclin E1 HTRF enzyme activity assay. It counts as biochemical. The following applies: 1 mM ATP. The protocol:
CDK2/Cyclin E1 enzyme activity assays utilize full-length human CDK2 co-expressed as N-terminal GST-tagged protein with FLAG-Cyclin E1 in a baculovirus expression system (Carna Product Number 04-165). Assays are conducted in white 384-well polystyrene plates in a final reaction volume of 8 μL. CDK2/Cyclin E1 (0.25 nM) is incubated with compounds (40 nL serially diluted in DMSO) in the presence of ATP (50 μM or 1 mM) and 50 nM ULight™-labeled eIF4E-binding protein 1 (THR37/46) peptide (PerkinElmer) in assay buffer (containing 50 mM HEPES pH 7.5, 1 mM EGTA, 10 mM MgCl2, 2 mM DTT, 0.05 mg/mL BSA, and 0.01% Tween 20) for 60 minutes at room temperature. The reactions are stopped by the addition of EDTA and Europium-labeled anti-phospho-4E-BP1 antibody (PerkinElmer), for a final concentration of 15 mM and 1.5 nM, respectively. HTRF signals are read after 1 hour at room temperature on a PHERAstar FS plate reader (BMG Labtech). Data is analyzed with IDBS XLFit and GraphPad Prism 5.0 software using a three or four parameter dose response curve to determine IC50 for each compound.
For orientation: IC50 means the concentration at which inhibition is half-maximal. A high value points to lower potency. Regarding `CC(C)(O)CNS(=O)(=O)c1ccc(Nc2ncc3c(n2)N([C@@H]2CCC[C@@]2(C)O)C(=O)C32CC2)cc1` [Example 10, 4-((7′-(2-hydroxy-2-methylcyclopentyl)-6′-oxo-6′,7′-dihydrospiro [cyclopropane-1,5′-pyrrolo[2,3-d]pyrimidin]-2′-yl)amino)-N-(2-hydroxy-2-methylpropyl)benzenesulfonamide], the half-inhibitory concentration (IC50) is no more than 0.05 µM.

As for `CN(C)CCNS(=O)(=O)c1ccc(Nc2ncc3c(n2)N(c2cc(F)ccc2Cl)C(=O)C32CC2)cc1` [Example 12, 4-((7′-(2-chloro-5-fluorophenyl)-6′-oxo-6′,7′-dihydrospiro[cyclopropane-1,5′-pyrrolo[2,3-d]pyrimidin]-2′-yl)amino)-N-(2-(dimethylamino)ethyl)benzenesulfonamide], the IC50 was no more than 0.05 µM. Turning to `CNS(=O)(=O)c1ccc(Nc2ncc3c(n2)N(c2cc4c(cc2Cl)CNCC4)C(=O)C32CC2)cc1` [Example 13, 4-((7′-(7-chloro-1,2,3,4-tetrahydroisoquinolin-6-yl)-6′-oxo-6′,7′-dihydrospiro[cyclopropane-1,5′-pyrrolo[2,3-d]pyrimidin]-2′-yl)amino)-N-methylbenzenesulfonamide], the IC50 was no more than 0.05 µM.

In turn, `[2H]C([2H])([2H])NS(=O)(=O)c1ccc(Nc2ncc3c(n2)N([C@@H]2CCC[C@@H](O)C2)C(=O)C32CC2)cc1` [Example 7, 4-((7′-((1R,3R)-3-hydroxycyclohexyl)-6′-oxo-6′,7′-dihydrospiro[cyclopropane-1,5′-pyrrolo[2,3-d]pyrimidin]-2′-yl)amino)-N-(methyl-d)benzenesulfonamide] showed an IC50 of no more than 0.05 µM. Same read-out and setting: next, `CNS(=O)(=O)c1ccc(Nc2ncc3c(n2)N(c2cc(F)ccc2C)C(=O)C32CC2)cc1` [Example 14, 4-((7′-(5-fluoro-2-methylphenyl)-6′-oxo-6′,7′-dihydrospiro[cyclopropane-1,5′-pyrrolo[2,3-d]pyrimidin]-2′-yl)amino)-N-methylbenzenesulfonamide]: no more than 0.05 µM; `CC1(NS(=O)(=O)c2ccc(Nc3ncc4c(n3)N([C@@H]3CCC[C@]3(C)O)C(=O)C43CC3)cc2)CNC1` (relative stereo) [Example 3, 4-((7′-((cis)-2-hydroxy-2-methylcyclopentyl)-6′-oxo-6′,7′-dihydrospiro[cyclopropane-1,5′-pyrrolo[2,3-d]pyrimidin]-2′-yl)amino)-N-(3-methylazetidin-3-yl)benzenesulfonamide]: no more than 0.05 µM; `[2H]C([2H])([2H])NS(=O)(=O)c1ccc(Nc2ncc3c(n2)N([C@@H](C)C2CC2)C(=O)C32CC2)cc1` [Example 8, (S)-4-((7′-(1-cyclopropylethyl)-6′-oxo-6′,7′-dihydrospiro[cyclopropane-1,5′-pyrrolo[2,3-d]pyrimidin]-2′-yl)amino)-N-(methyl-d)benzenesulfonamide]: no more than 0.05 µM.

`CNS(=O)(=O)c1ccc(Nc2ncc3c(n2)N([C@@H]2CCC[C@H]2C)C(=O)C32CC2)cc1` (relative stereo) [Example 2, N-methyl-4-((7′-((trans)-2-methylcyclopentyl)-6′-oxo-6′,7′-dihydrospiro[cyclopropane-1,5′-pyrrolo[2,3-d]pyrimidin]-2′-yl)amino)benzenesulfonamide] registered an IC50 of no more than 0.05 µM.

Compound `CNS(=O)(=O)c1ccc(Nc2ncc3c(n2)N([C@@H]2CCC[C@@H](O)C2)C(=O)C32CC2)cc1` [Example 6, 4-((7′-((1R,3R)-3-hydroxycyclohexyl)-6′-oxo-6′,7′-dihydrospiro [cyclopropane-1,5′-pyrrolo[2,3-d]pyrimidin]-2′-yl)amino)-N-methylbenzene sulfonamide] registered an IC50 of no more than 0.05 µM. On the same count and under the same terms, next, `CNS(=O)(=O)c1ccc(Nc2ncc3c(n2)N([C@@H]2CCC[C@]2(C)O)C(=O)C32CC2)cc1` (relative stereo) [Example 1, 4-((7′-((cis)-2-hydroxy-2-methylcyclopentyl)-6′-oxo-6′,7′-dihydrospiro[cyclopropane-1,5′-pyrrolo[2,3-d]pyrimidin]-2′-yl)amino)-N-methylbenzenesulfonamide]: no more than 0.05 µM; `CNS(=O)(=O)c1ccc(Nc2ncc3c(n2)N([C@@H]2CCC[C@@]2(C)O)C(=O)C32CC2)c(F)c1` (relative stereo) [Example 11, 3-fluoro-4-((7′-((trans)-2-hydroxy-2-methylcyclopentyl)-6′-oxo-6′,7′-dihydrospiro[cyclopropane-1,5′-pyrrolo[2,3-d]pyrimidin]-2′-yl)amino)-N-methylbenzenesulfonamide]: no more than 0.05 µM. Turning to `CC1CCCC1N1C(=O)C2(CC2)c2cnc(Nc3ccc(S(=O)(=O)N[C@@H]4CCCN(C)C4)cc3)nc21` (stereo partly drawn) [Example 5, 4-((7′-(2-methylcyclopentyl)-6′-oxo-6′,7′-dihydrospiro[cyclopropane-1,5′-pyrrolo[2,3-d]pyrimidin]-2′-yl)amino)-N—((R)-1-methylpiperidin-3-yl) benzenesulfonamide], the IC50 was no more than 0.05 µM. The compound `CC[C@@H](N1C(=O)C2(CC2)c2cnc(Nc3ccc(S(=O)(=O)NC)cc3)nc21)C(F)(F)F` [Example 4, (R)—N-methyl-4-((6′-oxo-7′-(1,1,1-trifluorobutan-2-yl)-6′,7′-dihydrospiro[cyclopropane-1,5′-pyrrolo[2,3-d]pyrimidin]-2′-yl)amino)benzenesulfonamide] came in with an IC50 of no more than 0.05 µM. Same read-out and setting: as for `CNS(=O)(=O)c1ccc(Nc2ncc3c(n2)N(c2cc(F)ccc2Cl)C(=O)C32CC2)cc1` [Example 15, 4-((7′-(2-chloro-5-fluorophenyl)-6′-oxo-6′,7′-dihydrospiro[cyclopropane-1,5′-pyrrolo[2,3-d]pyrimidin]-2′-yl)amino)-N-methylbenzenesulfonamide], the figure is no more than 0.05 µM; as for `[2H]C([2H])([2H])NS(=O)(=O)c1ccc(Nc2ncc3c(n2)N([C@@H]2CCC[C@@]2(C)O)C(=O)C32CC2)cc1` (single isomer, unassigned) [Example 9, 4-((7′-((trans)-2-hydroxy-2-methylcyclopentyl)-6′-oxo-6′,7′-dihydrospiro [cyclopropane-1,5′-pyrrolo[2,3-d]pyrimidin]-2′-yl)amino)-N-(methyl-d)benzene sulfonamide], no more than 0.05 µM.

A further assay relates to CCNE1 amplified COV318 cells. Kind of assay: Cell cycle analysis by FACS in COV318 cells with control or p16 siRNA. The format is cell-based, human. The following applies: control siRNA-treated cells; 100 nM; sixteen hours. The protocol: To confirm the role of p16 in CDK2-sensitivity of CCNE-amplified cells, COV318 cells were treated with control or p16-specifict siRNA.
Bulk DNA was stained with DAPI. Compound-treated and DMSO treated control cells were acquired with CytoFlex (Beckman Coulter) and were analyzed using the FlowJo software. For cell cycle analysis of cells with siRNA knockdown, 72 hours after siRNA transfection, cells exposed to 10 μM EdU for 3 hours before detection of Click-iT Alexa Fluor® 647 azide kit.
(A flow cytometer gives signals particle by particle.)
As for `C[C@@]1(O)CCC[C@H]1n1c(=O)ccc2cnc(NC3CCN(S(C)(=O)=O)CC3)nc21` [Compound A, 8-((1R,2R)-2-hydroxy-2-methylcyclopentyl)-2-((1-(methylsulfonyl)piperidin-4-yl)amino)pyrido[2,3-d]pyrimidin-7(8H)-one], the “percentage of S phase cells” value is reported as “significantly decreased”.

Staying with this assay, now noted: p16 knocked down cells; 100 nM; sixteen hours; compared to DMSO control.
Regarding `C[C@@]1(O)CCC[C@H]1n1c(=O)ccc2cnc(NC3CCN(S(C)(=O)=O)CC3)nc21` [Compound A, 8-((1R,2R)-2-hydroxy-2-methylcyclopentyl)-2-((1-(methylsulfonyl)piperidin-4-yl)amino)pyrido[2,3-d]pyrimidin-7(8H)-one], the “percentage of S phase cells” value is listed as “not significantly decreased”.

In the next assay the test system is Rb phosphorylated on serine 780 in CCNE1 amplified COV318 cells. Nature of the assay: CDK2 pRb (S780) HTRF cellular assay. The settings on record: Homo sapiens, FIG. 10B. It counts as cell-based. The protocol: CDK2 pRb ([…]) HTRF cellular assay enables the quantitative detection of Rb phosphorylated on […] in CCNE1 amplified COV318 cells. The assay comprised two antibodies: Europium cryptate labeled anti-Phospho-Rb […] antibody (donor) and d2 labeled anti-Rb antibody (acceptor). […] The final concentrations of compounds start from 3 μM. […] After 2 h of incubation at room temperature, HTRF signals were measured on the PHERAstar microplate reader (BMG Labtech), using 340 nm as excitation wavelength, a 620 nm filter for the Europium donor fluorescence, and a 665-nm filter for the acceptor fluorescence detection. HTRF signals were calculated as the HTRF ratio (ratio of fluorescence measured at 665 nm and 620 nm)×10000.
(In general: In TR-FRET formats the signal depends on donor and acceptor labels being close together.)
In turn, `C[C@@]1(O)CCC[C@H]1n1c(=O)ccc2cnc(NC3CCN(S(C)(=O)=O)CC3)nc21` [Compound A, 8-((1R,2R)-2-hydroxy-2-methylcyclopentyl)-2-((1-(methylsulfonyl)piperidin-4-yl)amino)pyrido[2,3-d]pyrimidin-7(8H)-one] gave an IC50 of 0.037 µM.

Source of the values: patent publication US11919904B2, “Sulfonylamide compounds as CDK2 inhibitors” (Incyte Corporation, priority 2019, dated 2024).
